Data on 2 compounds can be found in US12433876B2, “Septin inhibitors for treatment of cancers” (UNIVERSITY OF ROCHESTER, priority 2019, dated 2025).

For one assay, the system named is HE4 mRNA. Kind of assay: HE4 expression by real time PCR. In kind it is cell-based. The conditions noted are these: ECC-1, 300 μM, 5 hours, normalized to B2M. On the procedure:
Cell lines, Culture, and Reagents. Cells were maintained in either DMEM (SKOV-3, KLE, OVCAR-3, OVCAR8-C5 and IGROV-1) or RPMI-1640 (ECC-1 and HCH-1), supplemented with 10% fetal calf serum (or 20% for OVCAR-3), penicillin (100 units/mL), and streptomycin (100 μg/mL) at 37° C. with 5% CO2 in a humidified incubator. Antibodies were purchased from Abcam (septin-2; ab179436) and Cell Signaling Technology; ERK (9102), p-ERK (4370), -actin (3700), u-Tubulin (2144), EGFR (4267) and HER2 (4290). FCF was purchased from Abcam. All other chemicals were from Sigma Aldrich. Synthesis of Derivaties. […] The reaction was monitored using thin-layer chromatography plates with DCM-MeOH or pure ethyl acetate as eluent. Spots were monitored in a UV chamber. […] Quantitative Real-Time PCR. […] Quantitative real-time PCR was conducted using QuantStudio 12 K Flex Real-Time PCR System (ABI) and the Taqman Gene Expression Assay (ABI) consisting of the FAM-labeled probes as follows: SEPT2 (Hs01565417_ml); WFDC2 (Hs00899484_ml); TBP (Hs00427620_ml) or B2M (Hs00187842_ml), which was used as reference for normalization. […] Cell viability, proliferation, and cellular apoptosis were measured using the MTS (Promega), BrdU cell proliferation (Cell Signaling Technology), and Caspase-Glo 3/7 apoptosis detection (Promega) assays, following the respective manufacturer's recommendations with suitable modification. […]
On the technique in general: Real-time PCR tracks product formation cycle by cycle.

The test system of another assay is HE4. Kind of assay: HE4 ELISA, secreted and intracellular levels. The format is cell-based, human. The procedure:
Cell lines, Culture, and Reagents. Cells were maintained in either DMEM (SKOV-3, KLE, OVCAR-3, OVCAR8-C5 and IGROV-1) or RPMI-1640 (ECC-1 and HCH-1), supplemented with 10% fetal calf serum (or 20% for OVCAR-3), penicillin (100 units/mL), and streptomycin (100 μg/mL) at 37° C. with 5% CO2 in a humidified incubator. Antibodies were purchased from Abcam (septin-2; ab179436) and Cell Signaling Technology; ERK (9102), p-ERK (4370), -actin (3700), u-Tubulin (2144), EGFR (4267) and HER2 (4290). FCF was purchased from Abcam. All other chemicals were from Sigma Aldrich. Synthesis of Derivaties. […] The reaction was monitored using thin-layer chromatography plates with DCM-MeOH or pure ethyl acetate as eluent. Spots were monitored in a UV chamber. The reaction mixture, upon completion of the reaction, was poured into wet ice mixture and triturated, then the separated solid was filtered by vacuum. The product was washed with hexane, followed by diethyl ether, and was dried under vacuum. The compounds were characterized by spectrophotometric techniques. Quantitative Real-Time PCR. The indicated cell lines were transfected with siRNA targeting septin-2 or non-targeting control siRNA (Santa Cruz Biotechnology: sc-37007 or sc-40936) using Lipofectamine 3000 (Invitrogen). Tri reagent and Direct-zol kit (Zymo Research) were used to lyse and isolate total RNA. Reverse transcription was performed using iScript cDNA synthesis kit (BioRad), both following the manufacturer's recommendations. Quantitative real-time PCR was conducted using QuantStudio 12 K Flex Real-Time PCR System (ABI) and the Taqman Gene Expression Assay (ABI) consisting of the FAM-labeled probes as follows: SEPT2 (Hs01565417_ml); WFDC2 (Hs00899484_ml); TBP (Hs00427620_ml) or B2M (Hs00187842_ml), which was used as reference for normalization. Cell Viability, Proliferation and Apoptosis Assay. Cell viability, proliferation, and cellular apoptosis were measured using the MTS (Promega), BrdU cell proliferation (Cell Signaling Technology), and Caspase-Glo 3/7 apoptosis detection (Promega) assays, following the respective manufacturer's recommendations with suitable modification. Enzyme-Linked Immunosorbent Assay (ELISA) and Immunoblotting. Cells were maintained overnight in the culture media described above. […] Following the treatment, cell lysates and supernatants were collected and subjected to HE4 assay (Human HE4 Quantikine ELISA Kit, R&D Systems). The amount of HE4 in supernatant was normalized to the protein concentration of matching cell lysate. The levels of HER2 were determined by Human Total ErbB2/Her2 DuoSet IC ELISA (R&D systems. Wester blot analysis was conducted using the protocol previously published (see Kim, K. K. et al. Tetrathiomolybdate inhibits mitochondrial complex IV and mediates degradation of hypoxia-inducible factor-1alpha in cancer cells. Sci. Rep. 5, 14296, 2015). Data Acquisition and Statistical Analysis. Gene expression profiling of septins, comparing microdissected normal ovarian stroma (N=8) against that of tumor stroma samples (N=31) from high grade serous ovarian cancer patients, was obtained from Mixed Ovarian Cancer (CAFs)-Wong-77-u133p2 data-set through ‘R2: Genomics Analysis and Visualization Platform (http://r2/am/n1). […] Survival curves between septin high and low population and their statistical significance were analyzed using GraphPad Prism software (Mantel-Cox test). […]
Background: ELISA stands for enzyme-linked immunosorbent assay.

The subject of the next assay is HER2. Kind of assay: Immunoblot of HER2 expression, pancreatic and breast cancer cells. In kind it is cell-based. (In general: A western blot detects proteins with antibodies after separation by electrophoresis.)
Another assay deals with PANC-1 cell line. Kind of assay: RNA-Seq whole transcriptome analysis, PANC-1. The format is cell-based, human. The note with it: 10 nM Afatinib, 1 μM UR214-9.

`O=C(Nc1ccccc1)Nc1ccnc(Cl)c1` [FCF, N-(2-chloro-4-pyridyl)-N′-phenylurea, reference compound]: the “HE4 mRNA” value in the assay with HE4 mRNA is listed as “suppress HE4 mRNA to some extent”. Also, the HE4 secretion result in the assay on HE4 (ECC-1 and HCH-1 cells, 5 hours) is “dose-dependent”. For the same compound, in the assay on HE4 (OVCAR8-C5, 300 μM for 7 h), the HE4 secretion entry is listed as “decrease in HE4 secretion” and the “intracellular levels of HE4” value is reported as “marginal increase”.
Consider `O=C(Nc1cc(Cl)nc(Cl)c1)Nc1cccc(SC(F)(F)F)c1F` [UR214-9], for which the HER2 expression result in the assay on HER2 (MDA-MB-231, JIMT-1 and MCF-7 cells, 10 and 30 μM, 24 hours) is given as “reduced HER2 expression”; in the assay with HER2 (PANC-1 (HER2+), 0.1, 1.0 and 10 μM, 72 hours), “dose-dependent decrease in HER2 expression”. Besides, the “significantly differentially expressed genes versus control” value with PANC-1 cell line was “no differentially expressed genes”.
